Laboratory results taken from patent publication US9150566B2, “2-(1,2,3-triazol-2-yl)benzamide and 3-(1,2,3-triazol-2-YL)picolinamide derivatives as orexin receptor antagonists” (ACTELION PHARMACEUTICALS LTD., priority 2011, dated 2015).
pIC50: −log10 of the molar value.

Tests used:
CYP3A4 = CYP3A4 (Homo sapiens (Human), UniProt P08684); assay: CYP3A4 inhibition assay (human liver microsomes, testosterone 6β-hydroxylation); conditions: read-out: CYP3A4 IC50, 40 μM testosterone
Procedure: The CYP3A4 inhibition assay was performed using human liver microsomes and testosterone 6β-hydroxylation as a P450 isoform-specific marker. In a total volume of 150 μL, ^14C-testosterone at a final concentration of 40 μM in a 100 mM phosphate buffer (pH 7.4) was incubated in a 96-well plate with 0.3 mg/mL of human liver microsomes in an Eppendorf thermomixer at 37° C. and 400 rpm. […] The reaction was initiated by addition of 15 μL of the NADPH-regenerating system containing the glucose-6-phosphate dehydrogenase and terminated after 7 min with a 75 μL-aliquot of methanol. After centrifugation at 465 g and 4° C. for 20 min, a 50 μL-aliquot of the supernatant was submitted to HPLC according to the method described below. The total concentration of DMSO in the assay including controls without inhibitor was 1%.
Nicardipine was run in parallel as a reference inhibitor of CYP3A4 activity at final concentrations of 0, 0.1, 0.5, 1.0, 5.0, 10, 25, and 50 μM. Stock solutions thereof were prepared in DMSO.
The chromatographic separation of testosterone and 6β-hydroxytestosterone was achieved on a Phenomenex Luna C18(2) column (5 μm, 2.0×10 mm) at RT with a flow rate of 0.6 mL/min. Mobile phases consisted of 1% aqueous formic acid (phase A) and methanol (phase B) using a gradient method with 0.9 min total run time.
The quantification of 6β-hydroxytestosterone was carried out using a quadrupole mass spectrometer equipped with an ionspray interface operating in positive ion mode. The parameters of the mass detector were set as follows: capillary voltage 5 kV, auxiliary gas 40 psi, collision gas 3 mTorr, and transfer capillary temperature 420° C.

human orexin-2 receptor = human orexin-2 receptor (Homo sapiens (Human), UniProt O43614); assay: In vitro intracellular calcium measurements (FLIPR), antagonistic activity on orexin-2 receptor; type: cell-based; conditions: CHO cells expressing human orexin-2 receptor; FLIPR; 3 nM orexin-A agonist; 120 min antagonist incubation; geometric mean if determined several times; read-out: IC50 OX2
Procedure: (§1) In Vitro Assay: Intracellular Calcium Measurements:
(§2) Chinese hamster ovary (CHO) cells expressing the human orexin-1 receptor and the human orexin-2 receptor, respectively, are grown in culture medium (Ham F-12 with L-Glutamine) containing 300 μg/mL G418, 100 U/mL penicillin, 100 μg/mL streptomycin and 10% heat inactivated fetal calf serum (FCS). The cells are seeded at 20′000 cells/well into 384-well black clear bottom sterile plates (Greiner). The seeded plates are incubated overnight at 37° C. in 5% CO2.
(§3) Within the Fluorescent Imaging Plate Reader (FLIPR Tetra, Molecular Devices), antagonists are added to the plate in a volume of 10 μL/well, incubated for 120 min and finally 10 μL/well of agonist is added. Fluorescence is measured for each well at 1 second intervals, and the height of each fluorescence peak is compared to the height of the fluorescence peak induced by 3 nM orexin-A with vehicle in place of antagonist. […] Optimized conditions were achieved by adjustment of pipetting speed and cell splitting regime. The calculated IC50 values may fluctuate depending on the daily cellular assay performance. Fluctuations of this kind are known to those skilled in the art.

human orexin-1 receptor = human orexin-1 receptor (Homo sapiens (Human), UniProt O43613); assay: In vitro intracellular calcium measurements (FLIPR), antagonistic activity on orexin-1 receptor; type: cell-based; conditions: CHO cells expressing human orexin-1 receptor; FLIPR; 3 nM orexin-A agonist; 120 min antagonist incubation; geometric mean if determined several times; read-out: IC50 OX1
Procedure: as §1, §2, §3

Sequence of human orexin-2 receptor (O43614 whole entry): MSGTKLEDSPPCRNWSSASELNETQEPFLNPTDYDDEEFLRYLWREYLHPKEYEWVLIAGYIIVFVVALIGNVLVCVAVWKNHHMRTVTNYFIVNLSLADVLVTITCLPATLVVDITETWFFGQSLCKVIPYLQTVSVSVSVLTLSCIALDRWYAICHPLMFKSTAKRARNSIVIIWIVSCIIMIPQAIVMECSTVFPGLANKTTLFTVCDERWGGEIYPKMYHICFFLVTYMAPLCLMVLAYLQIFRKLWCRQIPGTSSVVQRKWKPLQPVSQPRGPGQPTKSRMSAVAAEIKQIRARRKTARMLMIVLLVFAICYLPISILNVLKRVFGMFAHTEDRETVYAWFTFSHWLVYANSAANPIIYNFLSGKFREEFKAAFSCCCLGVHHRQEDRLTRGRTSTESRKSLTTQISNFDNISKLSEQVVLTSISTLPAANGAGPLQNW
Sequence of CYP3A4 (P08684 whole entry): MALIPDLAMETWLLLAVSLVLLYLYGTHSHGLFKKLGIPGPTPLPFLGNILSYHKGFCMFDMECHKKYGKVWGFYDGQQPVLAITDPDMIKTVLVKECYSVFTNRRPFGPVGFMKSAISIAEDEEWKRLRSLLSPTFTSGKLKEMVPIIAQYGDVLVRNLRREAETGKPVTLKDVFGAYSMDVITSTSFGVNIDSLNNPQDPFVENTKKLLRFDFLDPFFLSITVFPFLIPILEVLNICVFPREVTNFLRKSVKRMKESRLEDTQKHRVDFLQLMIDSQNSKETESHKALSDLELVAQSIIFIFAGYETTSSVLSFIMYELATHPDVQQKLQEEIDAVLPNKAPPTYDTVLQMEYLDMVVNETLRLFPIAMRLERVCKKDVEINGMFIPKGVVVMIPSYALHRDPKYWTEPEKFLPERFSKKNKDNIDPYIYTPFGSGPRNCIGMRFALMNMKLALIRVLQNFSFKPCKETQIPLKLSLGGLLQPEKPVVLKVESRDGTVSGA
Sequence of human orexin-1 receptor (O43613 whole entry): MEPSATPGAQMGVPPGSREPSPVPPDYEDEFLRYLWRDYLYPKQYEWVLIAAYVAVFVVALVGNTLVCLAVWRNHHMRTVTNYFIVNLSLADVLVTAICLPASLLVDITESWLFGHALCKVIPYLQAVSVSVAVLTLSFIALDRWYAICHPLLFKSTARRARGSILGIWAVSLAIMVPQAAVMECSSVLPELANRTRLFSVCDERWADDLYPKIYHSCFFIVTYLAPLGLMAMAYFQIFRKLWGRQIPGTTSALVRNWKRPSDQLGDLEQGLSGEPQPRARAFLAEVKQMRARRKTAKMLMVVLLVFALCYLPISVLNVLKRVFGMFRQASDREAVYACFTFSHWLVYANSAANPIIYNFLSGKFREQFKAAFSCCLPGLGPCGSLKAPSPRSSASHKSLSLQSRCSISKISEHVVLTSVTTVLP

| SMILES | pIC50 (CYP3A4) | pIC50 (human orexin-2 receptor) | pIC50 (human orexin-1 receptor) |
| --- | --- | --- | --- |
| Cc1ccc(C(=O)N2CCO[C@@H](C)[C@H]2Cc2cccc(-n3nccn3)c2)c(-n2nccn2)c1 (single isomer, unassigned) [Example 163, [(2S,3R)-2-Methyl-3-(3-[1,2,3]triazol-2-yl-benzyl)-morpholin-4-yl]-(4-methyl-2-[1,2,3]triazol-2-yl-phenyl)-methanone or [(2R,3R)-2-Methyl-3-(3-[1,2,3]triazol-2-yl-benzyl)-morpholin-4-yl]-(4-methyl-2-[1,2,3]triazol-2-yl-phenyl)-methanone] | 4.85 | – | – |
| Cc1ccc(C(=O)N2CCO[C@H](C)[C@H]2Cc2cccc(-n3nccn3)c2)c(-n2nccn2)c1 (single isomer, unassigned) [Example 168, [(2R,3R)-2-Methyl-3-(3-[1,2,3]triazol-2-yl-benzyl)-morpholin-4-yl]-(4-methyl-2-[1,2,3]triazol-2-yl-phenyl)-methanone or [(2S,3R)-2-Methyl-3-(3-[1,2,3]triazol-2-yl-benzyl)-morpholin-4-yl]-(4-methyl-2-[1,2,3]triazol-2-yl-phenyl)-methanone] | 5.07 | – | – |
| O=C(c1ccccc1-n1nccn1)N1CCOC[C@H]1Cc1cccc(-c2ncon2)c1 [Example 1, [(R)-3-(3-[1,2,4]Oxadiazol-3-yl-benzyl)-morpholin-4-yl]-(2-[1,2,3]triazol-2-yl-phenyl)-methanone] | < 4.30 | 6.10 | 7.40 |
| Cc1ccc(-n2nccn2)c(C(=O)N2CCOC[C@H]2Cc2cccc(-c3ncon3)c2)c1 [Example 2, (5-Methyl-2-[1,2,3]triazol-2-yl-phenyl)-[(R)-3-(3-[1,2,4]oxadiazol-3-yl-benzyl)-morpholin-4-yl]-methanone] | 4.37 | 6.39 | 8.15 |
| COc1ccc(C[C@@H]2COCCN2C(=O)c2ccccc2-n2nccn2)cc1-c1ccccn1 [Example 3, [(R)-3-(4-Methoxy-3-pyridin-2-yl-benzyl)-morpholin-4-yl]-(2-[1,2,3]triazol-2-yl-phenyl)-methanone] | 4.68 | 5.48 | 8.40 |
| COc1ccc(C[C@@H]2COCCN2C(=O)c2ccccc2-n2nccn2)cc1-c1cccnc1 [Example 4, [(R)-3-(4-Methoxy-3-pyridin-3-yl-benzyl)-morpholin-4-yl]-(2-[1,2,3]triazol-2-yl-phenyl)-methanone] | 5.92 | 5.73 | 8.22 |
| COc1ccc(C[C@@H]2COCCN2C(=O)c2ccccc2-n2nccn2)cc1-c1ncccn1 [Example 5, [(R)-3-(4-Methoxy-3-pyrimidin-2-yl-benzyl)-morpholin-4-yl]-(2-[1,2,3]triazol-2-yl-phenyl)-methanone] | < 4.30 | 5.53 | 8.40 |
| COc1ccc(C[C@@H]2COCCN2C(=O)c2ccccc2-n2nccn2)cc1-c1cnccn1 [Example 6] | 4.59 | 5.71 | 7.92 |
| COc1ccc(C[C@@H]2COCCN2C(=O)c2ccccc2-n2nccn2)cc1-c1cccnn1 [Example 7, [(R)-3-(4-Methoxy-3-pyridazin-3-yl-benzyl)-morpholin-4-yl]-(2-[1,2,3]triazol-2-yl-phenyl)-methanone] | < 4.30 | 5.22 | 7.59 |
| COc1ccc(C[C@@H]2COCCN2C(=O)c2ccccc2-n2nccn2)cc1-c1nccs1 [Example 8, [(R)-3-(4-Methoxy-3-thiazol-2-yl-benzyl)-morpholin-4-yl]-(2-[1,2,3]triazol-2-yl-phenyl)-methanone] | 5.49 | 6.47 | 9.00 |
| Cc1ccc(-n2nccn2)c(C(=O)N2CCOC[C@H]2Cc2cccc(-c3ncccn3)c2)c1F [Example 49, (2-Fluoro-3-methyl-6-[1,2,3]triazol-2-yl-phenyl)-[(R)-3-(3-pyrimidin-2-yl-benzyl)-morpholin-4-yl]-methanone] | 4.68 | 6.24 | – |
| Cc1cccc(C(=O)N2CCOC[C@H]2Cc2cccc(-c3ncon3)c2)c1-n1nccn1 [Example 83, (3-Methyl-2-[1,2,3]triazol-2-yl-phenyl)-[(R)-3-(3-[1,2,4]oxadiazol-3-yl-benzyl)-morpholin-4-yl]-methanone] | 4.60 | – | 8.15 |
| COc1cc(C(=O)N2CCOC[C@H]2Cc2cccc(-n3nccn3)c2)c(-n2nccn2)cc1Cl [Example 104, (4-Chloro-5-methoxy-2-[1,2,3]triazol-2-yl-phenyl)-[(R)-3-(3-[1,2,3]triazol-2-yl-benzyl)-morpholin-4-yl]-methanone] | 4.89 | 6.93 | – |
| Cc1ccc(C(=O)N2C[C@@H](C)OC[C@H]2Cc2cccc(-c3ncccn3)c2)c(-n2nccn2)c1C [Example 112, (3,4-Dimethyl-2-[1,2,3]triazol-2-yl-phenyl)-[(2R,5R)-2-methyl-5-(3-pyrimidin-2-yl-benzyl)-morpholin-4-yl]-methanone] | < 4.30 | 6.08 | – |
| O=C(c1cc(F)c(F)cc1-n1nccn1)N1CCOC[C@H]1Cc1cc(-n2nccn2)ccc1F [Example 137, (4,5-Difluoro-2-[1,2,3]triazol-2-yl-phenyl)-[(R)-3-(2-fluoro-5-[1,2,3]triazol-2-yl-benzyl)-morpholin-4-yl]-methanone] | – | 6.69 | 7.52 |
| Cc1ccc(-n2nccn2)c(C(=O)N2C[C@@H](C)OC[C@H]2Cc2cc(-n3ccnn3)ccc2F)c1 [Example 140, [(2R,5R)-5-(2-Fluoro-5-[1,2,3]triazol-1-yl-benzyl)-2-methyl-morpholin-4-yl]-(5-methyl-2-[1,2,3]triazol-2-yl-phenyl)-methanone] | – | 5.95 | 7.57 |
| Cc1ccc(-n2nccn2)c(C(=O)N2C[C@@H](C)OC[C@H]2Cc2cc(-c3ncccn3)ccc2F)c1 [Example 147, [(2R,5R)-5-(2-Fluoro-5-pyrimidin-2-yl-benzyl)-2-methyl-morpholin-4-yl]-(5-methyl-2-[1,2,3]triazol-2-yl-phenyl)-methanone] | 4.55 | 6.77 | – |
| C[C@@H]1CN(C(=O)c2ccccc2-n2nccn2)[C@H](Cc2cc(-c3ncccn3)ccc2F)CO1 [Example 148, [(2R,5R)-5-(2-Fluoro-5-pyrimidin-2-yl-benzyl)-2-methyl-morpholin-4-yl]-(2-[1,2,3]triazol-2-yl-phenyl)-methanone] | – | 5.71 | 7.41 |
| Cc1ccc(C(=O)N2C[C@@H](C)OC[C@H]2Cc2cc(-c3ncccn3)ccc2F)c(-n2nccn2)c1C [Example 151, (3,4-Dimethyl-2-[1,2,3]triazol-2-yl-phenyl)-[(2R,5R)-5-(2-fluoro-5-pyrimidin-2-yl-benzyl)-2-methyl-morpholin-4-yl]-methanone] | – | 6.09 | 8.10 |
| C[C@@H]1CN(C(=O)c2ccc(Cl)cc2-n2nccn2)[C@H](Cc2cc(-c3ncccn3)ccc2F)CO1 [Example 153, (4-Chloro-2-[1,2,3]triazol-2-yl-phenyl)-[(2R,5R)-5-(2-fluoro-5-pyrimidin-2-yl-benzyl)-2-methyl-morpholin-4-yl]-methanone] | 4.74 | 7.07 | – |
| Cc1ccc(-n2nccn2)c(C(=O)N2CCOC[C@H]2Cc2cc(-c3ncccn3)ccc2F)c1 [Example 155, [(R)-3-(2-Fluoro-5-pyrimidin-2-yl-benzyl)-morpholin-4-yl]-(5-methyl-2-[1,2,3]triazol-2-yl-phenyl)-methanone] | 4.52 | 6.43 | – |
| Cc1cccc(C(=O)N2CCOC[C@H]2Cc2cc(-c3ncccn3)ccc2F)c1-n1nccn1 [Example 157, [(R)-3-(2-Fluoro-5-pyrimidin-2-yl-benzyl)-morpholin-4-yl]-(3-methyl-2-[1,2,3]triazol-2-yl-phenyl)-methanone] | – | 5.59 | 7.41 |
| Cc1ccc(C(=O)N2CCOC[C@H]2Cc2cc(-c3ncccn3)ccc2F)c(-n2nccn2)c1C [Example 158, (3,4-Dimethyl-2-[1,2,3]triazol-2-yl-phenyl)-[(R)-3-(2-fluoro-5-pyrimidin-2-yl-benzyl)-morpholin-4-yl]-methanone] | 4.40 | 5.65 | – |
| O=C(c1ccc(Cl)cc1-n1nccn1)N1CCOC[C@H]1Cc1cc(-c2ncccn2)ccc1F [Example 160, (4-Chloro-2-[1,2,3]triazol-2-yl-phenyl)-[(R)-3-(2-fluoro-5-pyrimidin-2-yl-benzyl)-morpholin-4-yl]-methanone] | 4.77 | 6.57 | – |
| Cc1cccc(C(=O)N2CCOC[C@H]2Cc2cc(-c3ncon3)ccc2F)c1-n1nccn1 [Example 177, [(R)-3-(2-Fluoro-5-[1,2,4]oxadiazol-3-yl-benzyl)-morpholin-4-yl]-(3-methyl-2-[1,2,3]triazol-2-yl-phenyl)-methanone] | – | 6.05 | 7.60 |
| O=C(c1ccccc1-n1nccn1)N1CCOC[C@H]1Cc1ccc(Cl)c(-c2ncccn2)c1 [Example 194, [(R)-3-(4-Chloro-3-pyrimidin-2-yl-benzyl)-morpholin-4-yl]-(2-[1,2,3]triazol-2-yl-phenyl)-methanone] | – | 5.65 | 7.48 |
| O=C(c1ccccc1-n1nccn1)N1CCC[C@H]1Cc1cccc(-n2nccn2)c1 [Ref. 1] | 5.26 | – | 8.40 |
